The target of assay [1] is T1, Human immunodeficiency virus type 1 integrase (Human immunodeficiency virus 1, UniProt Q7ZJM1). As to the kind of experiment: Inhibition of recombinant full length C-terminal His-tagged HIV1 integrase expressed in Escherichia coli BL21(DE3) cells assessed as inhibition of recombinant C-terminal FLAG-tagged LEDGF/p75-induced integration of viral 32-mer blunt-ended U5 DNA into pBR322 DNA preincubated with enzyme for 30 mins followed by viral and target DNA addition and subsequent addition of LEDGF/p75 after 5 mins measured after 90 mins by HTRF assay. The format is cell-based. For orientation: In TR-FRET formats the signal depends on donor and acceptor labels being close together.
T1 sequence (Q7ZJM1 whole entry): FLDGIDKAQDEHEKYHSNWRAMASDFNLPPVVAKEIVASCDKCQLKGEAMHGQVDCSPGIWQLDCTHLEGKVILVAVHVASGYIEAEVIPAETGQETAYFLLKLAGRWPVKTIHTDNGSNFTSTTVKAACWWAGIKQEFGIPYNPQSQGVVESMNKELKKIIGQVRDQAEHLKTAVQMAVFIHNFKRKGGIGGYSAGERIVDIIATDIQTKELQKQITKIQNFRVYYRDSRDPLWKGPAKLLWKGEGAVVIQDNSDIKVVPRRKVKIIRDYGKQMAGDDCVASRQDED

In assay [2] the target is T1, Human immunodeficiency virus type 1 integrase. As to the kind of experiment: Inhibition of recombinant full length HIV1 C-terminal His-tagged integrase multimerization with N-terminal FLAG-tagged integrase expressed in Escherichia coli BL21(DE3) cells after 2.5 hrs by HTRF assay.
Assay [3] has the same target. As to the kind of experiment: Inhibition of recombinant full length C-terminal His-tagged HIV1 integrase expressed in Escherichia coli BL21(DE3) cells assessed as reduction in LEDGF/p75 independent 3' processing activity using 32P-labeled blunt ended 21-mer DNA as substrate preincubated for 30 mins followed by substrate addition measured after 1 hr by […].
Assay [4] addresses T2, Human immunodeficiency virus type 1 integrase (Human immunodeficiency virus 1, UniProt Q7ZJM1, A128T). As to the kind of experiment: Inhibition of recombinant full length HIV1 C-terminal His-tagged integrase A128T mutant multimerization with N-terminal FLAG-tagged integrase A128T mutant expressed in Escherichia coli BL21(DE3) cells after 2.5 hrs by HTRF assay.
In assay [5] the target is T1, Human immunodeficiency virus type 1 integrase. As to the kind of experiment: Inhibition of C-terminal FLAG-tagged LEDGF/p75 binding to recombinant full length N-terminal His-tagged HIV1 integrase expressed in Escherichia coli BL21(DE3) cells preincubated with enzyme for 30 mins followed by LEDGF/p75 addition by HTRF assay.
Assay [6] deals with T2, Human immunodeficiency virus type 1 integrase. As to the kind of experiment: Inhibition of recombinant full length C-terminal His-tagged HIV1 integrase A128T mutant expressed in Escherichia coli BL21(DE3) cells assessed as reduction in LEDGF/p75 independent 3' processing activity using 32P-labeled blunt ended 21-mer DNA as substrate preincubated for 30 mins followed by substrate addition measured after 1 hr by […].

One may read the IC50 as the concentration that gives 50% inhibition. The EC50 is the concentration needed to bring the measured effect to its halfway point.

T2 sequence (Q7ZJM1 entry or part of it A128T): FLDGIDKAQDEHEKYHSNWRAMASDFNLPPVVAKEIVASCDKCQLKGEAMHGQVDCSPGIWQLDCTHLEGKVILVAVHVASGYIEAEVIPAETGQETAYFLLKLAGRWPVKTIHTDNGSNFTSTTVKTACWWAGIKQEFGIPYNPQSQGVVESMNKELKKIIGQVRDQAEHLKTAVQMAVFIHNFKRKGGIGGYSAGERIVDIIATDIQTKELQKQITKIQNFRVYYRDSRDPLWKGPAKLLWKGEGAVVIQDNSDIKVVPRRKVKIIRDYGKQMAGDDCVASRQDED

Take `COC(C(=O)O)c1c(C)nc2ccc(Br)cc2c1-c1ccc(Cl)cc1` (stereo not drawn): the 50% inhibitory concentration (IC50) in assay [1] turned out to be 1.3 µM.

For the compound `Cn1c(C(OC(C)(C)C)C(=O)O)c(-c2ccc3c(c2)CCCO3)c2ccccc21` (stereo not drawn), the values for the concentration for a half-maximal effect (EC50) in assay [2] and in assay [4] were 16.1 µM and 16 µM, respectively. For the same compound, the half-inhibitory concentration (IC50) stood at 3.2 µM in assay [3], 28.7 µM in assay [5], 4.5 µM in assay [1] and 0.9 µM in assay [6].

Turning to `Cn1c(C(OC(C)(C)C)C(=O)O)c(Cc2ccccc2)c2ccccc21` (stereo not drawn), the concentration for half-maximal inhibition (IC50) in assay [1] was found to be 31.3 µM.

For the compound `Cn1c(CC(OC(C)(C)C)C(=O)O)c(-c2ccccc2)c2ccccc21` (stereo not drawn), the IC50 in assay [1] was more than 100 µM.

In the case of `COc1ccc(-n2c(C(OC(C)(C)C)C(=O)O)c(C)c3ccccc32)cc1` (stereo not drawn), the IC50 in assay [1] is more than 100 µM.

For the compound `COc1ccc(-c2c(C(OC(C)(C)C)C(=O)O)n(C)c3ccccc23)cc1` (stereo not drawn), the half-inhibitory concentration (IC50) in assay [1] worked out at 32 µM.

For the compound `COc1ccc(-c2c(C(OC(C)(C)C)C(=O)O)n(Cc3ccccc3)c3ccccc23)cc1` (stereo not drawn), in assay [1], the 50% inhibitory concentration (IC50) was 59.1 µM.

For the compound `Cn1c(C(OC(C)(C)C)C(=O)O)c(-c2ccccc2)c2ccccc21` (stereo not drawn), the half-maximal inhibitory concentration (IC50) in assay [1] stood at 44.1 µM.

The record behind these values is ChEMBL document CHEMBL4431384, “Indole-based allosteric inhibitors of HIV-1 integrase” (Bioorg Med Chem Lett, 2016).
